Test systems include 786-0 renal; HOP-92 NSCLC; HT29 colon; K-562 leukemia; NCI-H23 lung; OVCAR-3 ovarian; SF-295 CNS; SK-MEL-2 melanoma; SNB-19 CNS; SR leukemia.
Common to all, as to assay: NCI tumour cell line growth inhibition, 48 h

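In this assay, cells in 96-well plates receive the compound at five concentrations for 48 hours. Endpoints are linearly interpolated between the surrounding concentrations. Abbreviation: GI50, concentration required for 50% inhibition of growth. TGI denotes the concentration required for complete inhibition of growth.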

For `O=C(NCCCCCCCCNC(=O)c1cnc2ccccc2n1)c1cnc2ccccc2n1`, the TGI in the experiment with 786-0 renal, in the experiment on HOP-92 NSCLC, in the experiment on HT29 colon, in the experiment with K-562 leukemia, with NCI-H23 lung and in the experiment with OVCAR-3 ovarian was over 100 µM throughout. The TGI in the experiment with SF-295 CNS, in the experiment with SK-MEL-2 melanoma, with SNB-19 CNS and with SR leukemia was over 100 µM in each case.

For `CC(=O)N1CCN(C2=Nc3ccccc3CO2)C1=S`, the GI50 was over 100 µM in the experiment on 786-0 renal; 34 µM in the experiment on HOP-92 NSCLC; 89.6 µM with HT29 colon; 46.5 µM in the experiment with K-562 leukemia; over 100 µM in the experiment with NCI-H23 lung; 51.6 µM with OVCAR-3 ovarian. Moreover, the GI50 in the experiment with SF-295 CNS is 43.1 µM; in the experiment on SNB-19 CNS, over 100 µM; in the experiment on SR leukemia it was 29300 nM. The TGI in the experiment on 786-0 renal, with HOP-92 NSCLC, with HT29 colon, with K-562 leukemia, in the experiment on NCI-H23 lung and with OVCAR-3 ovarian was over 100 µM in each case. Also, the TGI was over 100 µM with SF-295 CNS, over 100 µM in the experiment on SNB-19 CNS and 68.4 µM in the experiment on SR leukemia.

On to `N#Cc1cc(C#N)c(Cl)nc1N`, for which the TGI with 786-0 renal, with HOP-92 NSCLC, with HT29 colon, with K-562 leukemia, with NCI-H23 lung and in the experiment on OVCAR-3 ovarian was over 10 µM each time. For the same molecule, the TGI in the experiment with SF-295 CNS, in the experiment with SK-MEL-2 melanoma, with SNB-19 CNS and in the experiment with SR leukemia was over 10 µM throughout.

As to `CC1CC2C3CC(F)C4=CC(=O)C=CC4(C)C3(F)C(O)CC2(C)C1(O)C(=O)COC(=O)C(C)(C)C` (configuration not stated), the TGI in the experiment on 786-0 renal, with HOP-92 NSCLC, in the experiment with HT29 colon, in the experiment on K-562 leukemia, in the experiment with NCI-H23 lung and in the experiment with OVCAR-3 ovarian was over 100 µM throughout. The TGI in the experiment with SF-295 CNS, in the experiment on SK-MEL-2 melanoma, in the experiment with SNB-19 CNS and in the experiment with SR leukemia was over 100 µM throughout.

As to `COc1cc(/C(Cl)=C/C=C/C(=O)c2c(C)[n+]([O-])c3ccc(Cl)cc3[n+]2[O-])cc(OC)c1OC`, the GI50 is 4.62 µM with 786-0 renal; 4.7 µM in the experiment on HOP-92 NSCLC; 2.07 µM with HT29 colon; 1.43 µM in the experiment on K-562 leukemia; 9.36 µM in the experiment with NCI-H23 lung; 2.39 µM with OVCAR-3 ovarian. Further, the GI50 in the experiment with SF-295 CNS is 2.77 µM; in the experiment on SNB-19 CNS, 15 µM; in the experiment with SR leukemia, 1470 nM. The TGI was over 50 µM in the experiment with 786-0 renal; 28.1 µM in the experiment on HOP-92 NSCLC; 9.1 µM with HT29 colon; 6.24 µM in the experiment with K-562 leukemia; 44.6 µM with NCI-H23 lung; 10 µM in the experiment with OVCAR-3 ovarian. Moreover, the TGI is 20.5 µM in the experiment on SF-295 CNS, over 50 µM in the experiment on SNB-19 CNS and 4.72 µM with SR leukemia.

As to `O=C(Nc1ccc(Cl)cc1Cl)c1ccc(NC2=C(Cl)C(=O)N(Cc3ccccc3)C2=O)cc1`, the GI50 in the experiment with 786-0 renal is 21.6 µM; in the experiment with HOP-92 NSCLC it was 13.1 µM; in the experiment on K-562 leukemia, 6.24 µM; with OVCAR-3 ovarian, 16.3 µM; in the experiment with SF-295 CNS it was 19.5 µM; in the experiment on SK-MEL-2 melanoma, 54.1 µM. Moreover, the GI50 is 17.9 µM in the experiment with SNB-19 CNS and 1350 nM in the experiment with SR leukemia. Further, the TGI is over 100 µM with 786-0 renal; 26.7 µM in the experiment with HOP-92 NSCLC; 18.4 µM in the experiment with K-562 leukemia; 33.5 µM in the experiment with OVCAR-3 ovarian; 38.1 µM in the experiment with SF-295 CNS; over 100 µM with SK-MEL-2 melanoma. The TGI with SNB-19 CNS was determined as 31.9 µM; in the experiment on SR leukemia, 3.12 µM.

On to `COC(=O)Cc1cc(OC)c(OC)cc1Br`, for which the TGI with 786-0 renal, in the experiment with HOP-92 NSCLC, with HT29 colon, in the experiment with K-562 leukemia, in the experiment with NCI-H23 lung and in the experiment on OVCAR-3 ovarian was over 100 µM each time. Further, the TGI in the experiment on SF-295 CNS, with SK-MEL-2 melanoma, in the experiment on SNB-19 CNS and with SR leukemia was over 100 µM throughout.

Take `OCCOc1ccc(-c2cc(-c3ccccn3)nc(-c3ccccn3)c2)cc1`: the TGI with 786-0 renal was 13.9 µM; in the experiment with HOP-92 NSCLC it was over 100 µM; with HT29 colon, over 100 µM; in the experiment on K-562 leukemia it was 11.4 µM; in the experiment with NCI-H23 lung, over 100 µM; with OVCAR-3 ovarian, 6.67 µM. The TGI was over 100 µM with SF-295 CNS, 3.48 µM in the experiment with SK-MEL-2 melanoma, over 100 µM in the experiment with SNB-19 CNS and 11.7 µM in the experiment on SR leukemia.

For the molecule `Cc1ccccc1NC(=S)Nc1ccccn1`, the GI50 was over 100 µM in the experiment with 786-0 renal; 10.6 µM in the experiment with HOP-92 NSCLC; over 100 µM with HT29 colon; over 100 µM in the experiment with K-562 leukemia; 85.3 µM in the experiment on NCI-H23 lung; over 100 µM in the experiment with OVCAR-3 ovarian. The GI50 is over 100 µM in the experiment with SF-295 CNS, over 100 µM with SK-MEL-2 melanoma, over 100 µM in the experiment on SNB-19 CNS and over 100000 nM with SR leukemia. Moreover, the TGI with 786-0 renal, in the experiment with HOP-92 NSCLC, in the experiment on HT29 colon, in the experiment on K-562 leukemia, with NCI-H23 lung and with OVCAR-3 ovarian was over 100 µM each time. Also, the TGI in the experiment on SF-295 CNS, with SK-MEL-2 melanoma, in the experiment on SNB-19 CNS and with SR leukemia was over 100 µM each time.

For `Cc1ccc(C(=O)O/N=C2/CCCC/C2=C\c2ccccc2)cc1`, the TGI with 786-0 renal was over 100 µM; with HOP-92 NSCLC, over 100 µM; in the experiment with HT29 colon, over 100 µM; in the experiment with K-562 leukemia, 38.6 µM; with NCI-H23 lung, over 100 µM; in the experiment with OVCAR-3 ovarian, over 100 µM. The TGI with SF-295 CNS, with SK-MEL-2 melanoma, in the experiment on SNB-19 CNS and with SR leukemia was over 100 µM throughout.

Source of the values: PubChem BioAssay (NCI).
